Assay results taken from publication PMC6522524 (Nature Communications, 2019).
Where “and” joins values, the source holds several entries; their conditions need not be identical. Equal values may be shown once. Read-outs that look alike come from different tables or passages of the source.

Legend:
[1] = test system: HepG2 cells transfected with pHBV1.2×; conditions: HBV 1.2x adr, 10 μM, 6 days, Sample1-3
[2] = test system: HBV pgRNA promoter, HBV sRNA promoter; assay: Promoter analysis in HepG2 cells transfected with pGL3/HBV pgRNA promoter or pGL3/HBV sRNA promoter; format: cell-based, Hepatitis B virus; conditions: ETV
Excerpt: (§1) a Schematic depiction of the R1, R2, and R3 regions of the HBV genome that were targeted by
(§2) quantitative RT-PCR to quantitate the transcription of pgRNA, two HBV surface RNAs, and HBx RNA.
(§3) pGL3/HBV pgRNA promoter or pGL3/HBV sRNA promoter. The data shown in (b – d) represent two

[3] = test system: HBsAg in HepG2 cells transfected with pHBV1.2×; assay: Secreted HBsAg ELISA, HepG2 cells transfected with pHBV1.2×; format: cell-based, Hepatitis B virus; conditions: 10 μM, 6 days
Experimental: (§4) Secreted HBsAg (f, i respectively) was quantified by ELISA.
(§5) An HBsAg ELISA kit (KA0286, Abnova) was used to quantify HBsAg protein. Briefly, culture media were incubated in individual wells of the capture plates for 2 h. After washing, horseradish peroxidase-labeled rabbit anti-HBV surface antibody was added, followed by incubation for an additional 2 h. The substrate solution was added for 15–60 min and absorbance at 450 nm was measured.

[4] = in vitro; conditions: human, Cell viability(%), HepG2.2.15, 10 μM, 6 days
[5] = test system: HBV transcripts in HepG2 cells transfected with pHBV1.2×; assay: HBV transcription in HepG2 cells transfected with pHBV1.2×, quantitative RT-PCR; format: cell-based, Hepatitis B virus; conditions: Suppl. fig. 12c, ETV, Control = 1
Experimental: Quantitative RT-PCR with primers that detect three HBV regions (R1, R2, and R3, Supplementary Table 1) was used to measure HBV transcription. This RT-PCR detects pgRNA and precore RNA (3.5 kB), two HBV surface-encoding RNAs (2.5 kB and 2.1 kB), and HBx-encoding RNA (0.7 kB)[55]. PCR conditions were 95 °C for 10 min initially, then 50 cycles of 95 °C for 30 s, 60 °C for 60 s and 72 °C for 30 s, and finally 1 cycle of 95 °C for 60 s, 55 °C for 30 s and 95 °C for 30 s. […]
a Schematic depiction of the R1, R2, and R3 regions of the HBV genome that were targeted by quantitative RT-PCR to quantitate the transcription of pgRNA, two HBV surface RNAs, and HBx RNA. […]
c Region 3 transcription in ciclopirox-treated (b) HepG2.2.15 cells and (c) HepG2 cells transfected with the pHBV1.2× plasmid. d The promoter analysis of ciclopirox-treated HepG2 cells transfected with pGL3/HBV pgRNA promoter or pGL3/HBV sRNA promoter. The data shown in (b – d) represent two

[6] = in vitro; conditions: human, Cell viability(%), HBV 1.2x adr, 10 μM, 6 days
[7] = test system: HBV pgRNA/precore RNA in HepG2.2.15 cells; format: cell-based, Hepatitis B virus
Experimental: Fig. 1 Effect of FDA-approved compounds on HBV replication. a Schematic depiction of the primary screening analysis. HepG2.2.15 cells, which were stably transfected with HBV replicons, were treated with 978 FDA-approved drugs (1 μM) for 3 days. Entecavir (ETV) (1 μM) served as positive control. […] Quantitative RT-PCR was performed after 6 days of incubation. d Effect of the 19 candidates on intracellular HBV capsid assembly. Huh-7 cells were transfected with pCDNA3-Core and exposed after 12 h to the 19 candidates (1 μM) for 36 h. The cells were lysed and assembled HBV core particles were isolated by sucrose step gradient ultracentrifugation, resolved on 1% agarose gels, and subjected to immunoblot analysis with anti-HBV core antibody.
Quantitative RT-PCR with primers that detect three HBV regions (R1, R2, and R3, Supplementary Table 1) was used to measure HBV transcription. This RT-PCR detects pgRNA and precore RNA (3.5 kB), two HBV surface-encoding RNAs (2.5 kB and 2.1 kB), and HBx-encoding RNA (0.7 kB)[55]. PCR conditions were 95 °C for 10 min initially, then 50 cycles of 95 °C for 30 s, 60 °C for 60 s and 72 °C for 30 s, and finally 1 cycle of 95 °C for 60 s, 55 °C for 30 s and 95 °C for 30 s.
as §1, §2, §3

[8] = test system: HBsAg in HepG2.2.15 cells; assay: Secreted HBsAg ELISA, HepG2.2.15 cells; format: cell-based, Hepatitis B virus; conditions: 6 days
Experimental: as §4, §5

[9] = test system: HBV (pHBV1.2× adr) in transfected HepG2 cells; assay: microbe, parasite or virus in culture; format: cell-based, Hepatitis B virus; conditions: 10 μM, 6 days
[10] = test system: HBV (ayw subtype, genotype D) replicon in HepG2.2.15 cells; assay: microbe, parasite or virus in culture; format: cell-based, Hepatitis B virus; conditions: for activity at 10 µM: Hepatitis B virus, HepG2.2.15, 144 h, 6 days
[11] = test system: HBV (pHBV1.2× adr) in transfected HepG2 cells; assay: microbe, parasite or virus in culture; format: cell-based, Hepatitis B virus; conditions: 10 μM, 6 days; remark: listed apart in the source

SMILES: C=C1[C@H](CO)[C@@H](O)C[C@@H]1n1cnc2c(=O)[nH]c(N)nc21 [ETV, entecavir]
- Cell viability(%), individual samples [1]: 100.151% and 99.4005%
- Relative pgRNA promoter activity, AVERAGE ([2]; pgRNA promoter, Control = 1): 1.039
- Relative pgRNA promoter activity, Sample1-3 ([2]; pgRNA promoter, single samples): 0.9019 and 1.084 and 1.13
- Relative sRNA promoter activity, AVERAGE ([2]; sRNA promoter, Control = 1): 1.037
- Relative sRNA promoter activity, Sample1-3 ([2]; sRNA promoter, single samples): 0.9017 and 1.283 and 0.9275
- Relative secreted HBsAg (Folds), AVERAGE ([3]; HBV 1.2x adr (figure 4i)): 0.996 Folds
- Relative secreted HBsAg (Folds), individual samples ([3]; HBV 1.2x adr, Sample1-2): 1.007 Folds and 0.9855 Folds
- viability at 10 µM ([4]; AVERAGE): 101%
- viability at 10 µM ([4]; individual samples, Sample1-3): 101%
- Relative HBV transcript R1, Sample1-3 ([5]; R1, single samples): 0.9971 and 1.095 and 1.085
- Relative HBV transcript R2, AVERAGE ([5]; R2): 1.083
- Relative HBV transcript R3, AVERAGE ([5]; R3): 0.953
- Relative HBV transcript R3, Sample1-3 ([5]; R3, single samples): 0.9903 and 0.9758 and 0.8935
- viability at 10 µM ([6]; AVERAGE): 99.6%
- viability at 10 µM ([6]; individual samples, Sample1-3): 99.3%
- Relative HBV pgRNA/precore RNA level (Folds), AVERAGE ([7]; Fig. 1c, 6 days): 0.9573 Folds
- Relative HBV transcript R1, Sample1-3 ([7]; Suppl. fig. 12b, R1, single samples, ETV, Control = 1): 0.9164 and 1.011 and 1.015
- Relative HBV transcript R2, AVERAGE ([7]; Suppl. fig. 12b, R2, ETV, Control = 1): 1.028
- Relative HBV transcript R3, AVERAGE ([7]; Suppl. fig. 12b, R3, ETV, Control = 1): 0.9829
- Relative HBV transcript R3, Sample1-3 ([7]; Suppl. fig. 12b, R3, single samples, ETV, Control = 1): 0.9794 and 0.8641 and 0.8947
- Relative secreted HBsAg (Folds), AVERAGE ([8]; HepG2.2.15 (figure 4f), 10 μM): 0.9837 Folds
- Relative secreted HBsAg (Folds), individual samples ([8]; HepG2.2.15, 10 μM, Sample1-2): 0.9818 Folds and 0.9857 Folds
- Relative intracellular HBV DNA level (Folds), AVERAGE ([9]; HBV 1.2x adr (figure 4h)): 0.1393 Folds
- Relative intracellular HBV DNA level (Folds), individual samples ([9]; HBV 1.2x adr, Sample1-3): 0.1084 Folds and 0.1053 Folds and 0.1147 Folds
- HBV DNA particle secretion was reduced by ([10]; 1 μM, 3 days' incubation): 42.1 ± 14.1%
- activity at 10 µM ([10]; HepG2.2.15 (figure 4d), 10 μM, read-out: Relative secreted HBV DNA level (Folds), AVERAGE): 1.36%
- activity at 10 µM ([10]; HepG2.2.15, 10 μM, read-out: Relative secreted HBV DNA level (Folds), individual samples): 1.96%
- Relative secreted HBV DNA level (Folds), AVERAGE ([11]; HBV 1.2x adr (figure 4g)): 0.03628 Folds
- Relative secreted HBV DNA level (Folds), individual samples ([11]; HBV 1.2x adr): 0.356 Folds and 6.706e-5 Folds and 0.0005754 Folds
